Measurements reported in ChEMBL document CHEMBL1155381, “Optimization of 5-vinylaryl-3-pyridinecarbonitriles as PKCtheta inhibitors” (Bioorg Med Chem Lett, 2010).
≈ marks a conversion by molar mass, not a printed value.

How the values were obtained:
[1] = Cmax in NZBWF1/J mouse at 25 mg/kg, po; format: ADME, organism-based; parameters: dose 25 mg/kg, route oral; settings: in vivo
[2] = AUC in NZBWF1/J mouse at 25 mg/kg, po; format: ADME, organism-based; parameters: dose 25 mg/kg, route oral; settings: plasma
[3] = Aqueous solubility of compound; format: physicochemical; settings: buffer
[4] = Permeability by PAMPA; format: ADME; settings: read-out: permeability
Mus musculus = experiment: Cavg in NZBWF1/J mouse at 25 mg/kg, po; format: ADME, organism-based; parameters: dose 25 mg/kg, route oral; settings: in vivo

## Cc1c(Nc2c(C#N)cncc2/C=C/c2cccc(CN3CCN(C)CC3)n2)ccc2[nH]ccc12
[1]
  Cmax: 2200 nM
[2]
  AUC: 17.8 µM·h
[3]
  solubility: 61 µg/mL (≈ 132 µM)
[4]
  Papp: 0.39 ×10⁻⁶ cm/s
Mus musculus
  Drug uptake: 740 nM
